According to ChEMBL document CHEMBL5346968, “Exploring Structural Determinants of Bias among D4 Subtype-Selective Dopamine Receptor Agonists” (J Med Chem, 2023):

Assays:
D(4) dopamine receptor [1] = target: T1, D(4) dopamine receptor (Homo sapiens, UniProt P21917); test: Agonist activity at human dopamine D4 receptor transfected in HEK293T cells co-transfected with Galpha-qi assessed as activation of GPCR-mediated receptor signaling incubated for 90 mins by IP-one HTRF assay; assay type: functional, cell-based
T1 sequence (P21917 whole entry): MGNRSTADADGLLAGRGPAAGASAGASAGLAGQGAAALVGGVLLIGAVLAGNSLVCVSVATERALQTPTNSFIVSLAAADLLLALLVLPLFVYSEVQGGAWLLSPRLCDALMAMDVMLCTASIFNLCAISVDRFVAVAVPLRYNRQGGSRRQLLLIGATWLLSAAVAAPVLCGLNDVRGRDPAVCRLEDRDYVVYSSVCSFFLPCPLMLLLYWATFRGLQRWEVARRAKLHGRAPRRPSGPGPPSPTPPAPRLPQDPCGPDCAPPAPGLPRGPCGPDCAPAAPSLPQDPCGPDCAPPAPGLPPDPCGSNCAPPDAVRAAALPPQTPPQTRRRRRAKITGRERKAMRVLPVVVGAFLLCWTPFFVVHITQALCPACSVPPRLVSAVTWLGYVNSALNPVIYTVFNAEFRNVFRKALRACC

D(4) dopamine receptor [2] = target: T1, D(4) dopamine receptor; test: Agonist activity at PKA-tagged human dopamine D4 receptor transfected in HEK293T cells expressing (EA)-beta-arrestin assessed as beta-arrestin recruitment incubated for 3 hrs by chemiluminescence based PathHunter assay; assay type: functional, cell-based
D(4) dopamine receptor [3] = target: T1, D(4) dopamine receptor; test: Agonist activity at PKA-tagged human dopamine D4 receptor transfected in HEK293T cells expressing (EA)-beta-arrestin and GRK2 assessed as beta-arrestin recruitment incubated for 3 hrs by chemiluminescence based PathHunter assay; assay type: functional, cell-based
D(2) dopamine receptor [4] = target: T2, D(2) dopamine receptor (Homo sapiens, UniProt P14416); test: Displacement of [3H]-N-methylspiperone from human dopmaine D2L receptor expressed in CHO cell membrane assessed as inhibition constant by competition binding assay; assay type: cell membranes
D(2) dopamine receptor [5] = target: T2, D(2) dopamine receptor; test: Displacement of [3H]-N-methylspiperone from human dopmaine D2S receptor expressed in CHO cell membrane assessed as inhibition constant by competition binding assay; assay type: cell membranes
D(3) dopamine receptor = D(3) dopamine receptor (Homo sapiens, UniProt P35462); test: Displacement of [3H]-N-methylspiperone from human dopmaine D3 receptor expressed in HEK293T cells assessed as inhibition constant by competition binding assay; assay type: cell-based
D(1A) dopamine receptor = D(1A) dopamine receptor (Homo sapiens, UniProt P21728); test: Displacement of [3H]SCH23390 from human dopamine D1 receptor expressed in HEK293T cells assessed as inhibition constant by competition binding assay; assay type: cell-based
D(1B) dopamine receptor = D(1B) dopamine receptor (Homo sapiens, UniProt P21918); test: Displacement of [3H]SCH23390 from human dopamine D5 receptor expressed in HEK293T cells assessed as inhibition constant by competition binding assay; assay type: cell-based
[6] = target: T3, Alpha-1A adrenergic receptor (Homo sapiens, UniProt P35348); test: Displacement of [3H]prazosin from adrenergic alpha 1A receptor (unknown origin) expressed in HEK293T cells assessed as inhibition constant by competition binding assay; assay type: cell-based
T3 sequence (P35348 whole entry): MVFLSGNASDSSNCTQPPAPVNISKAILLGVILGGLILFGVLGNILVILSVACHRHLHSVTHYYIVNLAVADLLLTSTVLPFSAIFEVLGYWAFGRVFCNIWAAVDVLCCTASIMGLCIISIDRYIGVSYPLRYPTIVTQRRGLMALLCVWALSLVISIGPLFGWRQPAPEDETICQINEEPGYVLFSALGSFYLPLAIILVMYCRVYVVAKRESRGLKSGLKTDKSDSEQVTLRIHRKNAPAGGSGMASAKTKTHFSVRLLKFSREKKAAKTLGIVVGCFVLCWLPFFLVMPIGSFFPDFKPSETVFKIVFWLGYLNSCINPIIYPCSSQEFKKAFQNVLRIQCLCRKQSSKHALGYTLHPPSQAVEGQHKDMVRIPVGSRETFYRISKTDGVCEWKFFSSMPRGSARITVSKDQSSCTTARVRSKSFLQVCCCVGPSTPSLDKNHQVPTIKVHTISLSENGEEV

[7] = target: T4, Alpha-2A adrenergic receptor (Homo sapiens, UniProt P08913); test: Displacement of [3H]RX821002 from adrenergic alpha 2A receptor (unknown origin) expressed in HEK293T cells assessed as inhibition constant by competition binding assay; assay type: cell-based
T4 sequence (P08913 whole entry): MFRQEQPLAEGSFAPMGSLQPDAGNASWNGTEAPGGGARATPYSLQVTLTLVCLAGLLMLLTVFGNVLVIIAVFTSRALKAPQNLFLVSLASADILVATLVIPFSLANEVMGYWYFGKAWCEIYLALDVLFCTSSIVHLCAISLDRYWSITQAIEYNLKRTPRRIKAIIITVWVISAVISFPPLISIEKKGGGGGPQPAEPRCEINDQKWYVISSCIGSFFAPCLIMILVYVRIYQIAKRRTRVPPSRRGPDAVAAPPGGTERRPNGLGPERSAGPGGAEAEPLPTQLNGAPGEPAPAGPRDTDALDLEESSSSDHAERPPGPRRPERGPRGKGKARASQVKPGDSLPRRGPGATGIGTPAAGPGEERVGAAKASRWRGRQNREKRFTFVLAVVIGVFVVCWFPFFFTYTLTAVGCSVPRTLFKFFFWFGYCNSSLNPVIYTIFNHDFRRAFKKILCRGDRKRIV

[8] = target: T5, 5-hydroxytryptamine receptor 1A (Homo sapiens, UniProt P08908); test: Displacement of [3H][…] from 5-HT1A receptor (unknown origin) expressed in HEK293T cells assessed as inhibition constant by competition binding assay; assay type: cell-based
T5 sequence (P08908 whole entry): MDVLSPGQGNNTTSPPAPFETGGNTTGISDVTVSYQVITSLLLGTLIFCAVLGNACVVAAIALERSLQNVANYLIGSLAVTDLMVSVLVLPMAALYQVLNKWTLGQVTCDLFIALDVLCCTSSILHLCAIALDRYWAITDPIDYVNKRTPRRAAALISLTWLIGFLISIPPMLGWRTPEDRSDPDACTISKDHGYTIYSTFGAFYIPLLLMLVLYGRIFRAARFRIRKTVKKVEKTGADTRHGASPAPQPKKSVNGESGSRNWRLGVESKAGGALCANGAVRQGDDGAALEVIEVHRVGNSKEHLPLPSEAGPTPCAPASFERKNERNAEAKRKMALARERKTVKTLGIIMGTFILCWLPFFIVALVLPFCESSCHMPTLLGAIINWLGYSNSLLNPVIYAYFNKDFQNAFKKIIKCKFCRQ

[9] = target: 5-hydroxytryptamine receptor 2A (Homo sapiens, UniProt P28223); test: Displacement of [3H]ketanserin from 5-HT2A receptor (unknown origin) expressed in HEK293T cells assessed as inhibition constant by competition binding assay; assay type: cell-based
[10] = Drug metabolism in pooled rat liver microsomes assessed as O-demethylation mediated metabolite formation at 40 uM measured upto 60 mins in the presence of NADPH by HPLC(UV) analysis; assay type: ADME, Microsome; details: 1 h
[11] = Drug metabolism in pooled rat liver microsomes assessed as hydroxylation mediated metabolite formation at 40 uM measured upto 60 mins in the presence of NADPH by HPLC(UV) analysis; assay type: ADME, Microsome; details: 1 h
[12] = Permeability of the compound across basal to apical membrane in human Caco-2 cells at 50 uM incubated for 4 hrs by HPLC(UV) analysis; assay type: ADME, cell-based; details: caco-2, 4 h
[13] = Apparent permeability of the compound across basal to apical membrane in human Caco-2 cells at 50 uM incubated for 4 hrs by HPLC(UV) analysis; assay type: ADME, cell-based
[14] = Retention time of the compound by HPLC(UV) method; assay type: physicochemical
[15] = Metabolic stability in pooled rat liver microsomes assessed as parent compound remaining at 40 uM measured after 60 mins in the presence of NADPH by HPLC(UV) analysis; assay type: ADME, Microsome; details: read-out: Stability
[16] = Permeability of the compound across basal to apical membrane in human Caco-2 cells at 10 uM incubated for 4 hrs by HPLC(UV) analysis; assay type: ADME, cell-based; details: caco-2, 4 h
[17] = Permeability of the compound across basal to apical membrane in human Caco-2 cells at 10 uM incubated for 4 hrs in the presence of valspodar by HPLC(UV) analysis; assay type: ADME, cell-based; details: caco-2, 4 h
[18] = Permeability of the compound across basal to apical membrane in human Caco-2 cells at 5 uM incubated for 4 hrs by HPLC(UV) analysis; assay type: ADME, cell-based; details: caco-2, 4 h
[19] = Permeability of the compound across basal to apical membrane in human Caco-2 cells at 5 uM incubated for 4 hrs in the presence of valspodar by HPLC(UV) analysis; assay type: ADME, cell-based; details: caco-2, 4 h

T2 sequence (P14416 whole entry): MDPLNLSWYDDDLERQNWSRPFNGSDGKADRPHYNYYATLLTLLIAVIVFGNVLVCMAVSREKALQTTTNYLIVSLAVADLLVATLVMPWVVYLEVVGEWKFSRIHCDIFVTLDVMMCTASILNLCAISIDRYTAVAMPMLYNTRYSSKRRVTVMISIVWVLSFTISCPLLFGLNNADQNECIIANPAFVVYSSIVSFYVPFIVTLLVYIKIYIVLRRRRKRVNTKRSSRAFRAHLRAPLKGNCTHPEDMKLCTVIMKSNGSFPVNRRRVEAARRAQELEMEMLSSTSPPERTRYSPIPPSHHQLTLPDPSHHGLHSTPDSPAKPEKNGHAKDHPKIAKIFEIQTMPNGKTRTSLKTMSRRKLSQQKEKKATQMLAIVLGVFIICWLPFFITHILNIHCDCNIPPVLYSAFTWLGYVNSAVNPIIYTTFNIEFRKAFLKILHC
Chain of D(1A) dopamine receptor (P21728 whole entry): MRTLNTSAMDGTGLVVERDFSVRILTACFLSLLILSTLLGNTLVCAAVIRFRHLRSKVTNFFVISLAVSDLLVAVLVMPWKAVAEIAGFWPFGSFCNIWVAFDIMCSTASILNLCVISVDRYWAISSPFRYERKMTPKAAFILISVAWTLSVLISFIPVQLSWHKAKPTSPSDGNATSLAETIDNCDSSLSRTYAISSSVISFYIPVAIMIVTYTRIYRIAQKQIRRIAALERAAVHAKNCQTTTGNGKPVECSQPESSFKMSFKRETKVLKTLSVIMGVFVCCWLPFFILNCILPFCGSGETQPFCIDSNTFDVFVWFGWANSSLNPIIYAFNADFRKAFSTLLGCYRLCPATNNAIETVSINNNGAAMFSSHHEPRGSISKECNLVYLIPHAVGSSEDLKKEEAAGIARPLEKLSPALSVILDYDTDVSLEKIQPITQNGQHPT
Chain of D(1B) dopamine receptor (P21918 whole entry): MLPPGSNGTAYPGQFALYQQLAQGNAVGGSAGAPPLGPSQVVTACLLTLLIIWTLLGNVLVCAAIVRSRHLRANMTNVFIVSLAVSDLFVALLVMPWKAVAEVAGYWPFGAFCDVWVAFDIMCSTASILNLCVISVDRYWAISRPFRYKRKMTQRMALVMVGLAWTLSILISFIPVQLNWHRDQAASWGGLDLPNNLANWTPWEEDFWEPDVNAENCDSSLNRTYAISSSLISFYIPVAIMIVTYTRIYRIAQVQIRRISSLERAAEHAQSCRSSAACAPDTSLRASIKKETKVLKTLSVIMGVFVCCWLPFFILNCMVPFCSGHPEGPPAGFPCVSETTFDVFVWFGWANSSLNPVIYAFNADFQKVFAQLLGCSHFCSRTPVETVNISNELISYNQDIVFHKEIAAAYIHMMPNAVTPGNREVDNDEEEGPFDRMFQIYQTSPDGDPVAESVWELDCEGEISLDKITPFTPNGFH
Chain of 5-hydroxytryptamine receptor 2A (P28223 whole entry): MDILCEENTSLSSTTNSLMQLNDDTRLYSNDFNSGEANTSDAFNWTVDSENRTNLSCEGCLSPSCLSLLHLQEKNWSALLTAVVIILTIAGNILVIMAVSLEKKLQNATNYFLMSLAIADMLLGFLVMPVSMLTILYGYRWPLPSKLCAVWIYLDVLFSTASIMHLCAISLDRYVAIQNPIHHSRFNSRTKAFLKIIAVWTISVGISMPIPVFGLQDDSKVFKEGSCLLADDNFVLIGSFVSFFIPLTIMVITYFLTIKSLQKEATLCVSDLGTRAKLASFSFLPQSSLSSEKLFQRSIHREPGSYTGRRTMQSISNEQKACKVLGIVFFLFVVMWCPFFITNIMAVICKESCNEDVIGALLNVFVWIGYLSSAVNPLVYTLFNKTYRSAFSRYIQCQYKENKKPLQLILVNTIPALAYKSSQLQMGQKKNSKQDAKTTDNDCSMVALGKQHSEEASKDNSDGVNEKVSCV
Chain of D(3) dopamine receptor (P35462 whole entry): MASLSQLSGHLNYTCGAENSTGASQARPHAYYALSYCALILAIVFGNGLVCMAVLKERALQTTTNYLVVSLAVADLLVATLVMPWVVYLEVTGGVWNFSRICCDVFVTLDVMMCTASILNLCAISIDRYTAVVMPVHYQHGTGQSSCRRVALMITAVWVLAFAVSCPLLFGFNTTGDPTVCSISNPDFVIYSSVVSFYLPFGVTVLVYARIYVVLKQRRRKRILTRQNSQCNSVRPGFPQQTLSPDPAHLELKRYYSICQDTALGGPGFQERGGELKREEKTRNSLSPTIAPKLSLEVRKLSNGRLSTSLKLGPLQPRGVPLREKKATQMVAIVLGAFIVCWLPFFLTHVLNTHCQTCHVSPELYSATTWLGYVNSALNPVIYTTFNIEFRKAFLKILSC

Ki (D(2) dopamine receptor [4]) | Ki (D(2) dopamine receptor [5]) | Ki (D(3) dopamine receptor) | Ki (D(1A) dopamine receptor) | Ki (D(1B) dopamine receptor) | Ki [6] | Ki [7] | Ki [8] | Ki [9] | Drug metabolism [10] | Drug metabolism [11] | Retention_time [14] | SMILES | other results
– | – | – | – | – | – | – | – | – | – | – | – | COc1ccccc1N1CCN(CCCNC(=O)NN(Cc2ccc(F)cc2)c2ccccc2)CC1 | EC50 (D(4) dopamine receptor [1]): 1.8 nM; EC50 (D(4) dopamine receptor [2]): 350 nM; EC50 (D(4) dopamine receptor [3]): 42 nM
– | – | – | – | – | – | – | – | – | – | – | – | COc1ccccc1N1CCN(CCCNC(=O)NN(Cc2ccccc2)c2ccc(F)cc2)CC1 | EC50 (D(4) dopamine receptor [1]): 41 nM; EC50 (D(4) dopamine receptor [2]): 470 nM; EC50 (D(4) dopamine receptor [3]): 410 nM
52 nM | 36 nM | 44 nM | 16 nM | 350 nM | 8.2 nM | 150 nM | 100 nM | 160 nM | Metabolite_Detected | Metabolite_Detected | 4.37 min | COc1ccccc1N1CCN(CCCNC(=O)Nc2ccccc2-c2ccc(-c3ccccc3)cc2)CC1 | permeability [12]: Impermeable; Papp B→A at 4 h, 50 µM [13]: > 1 ×10⁻⁶ cm/s
210 nM | 100 nM | 57 nM | 730 nM | 4500 nM | 7.1 nM | 28 nM | 25 nM | 960 nM | Metabolite_Detected | Metabolite_Detected | 3.91 min | COc1ccccc1N1CCN(CCCNC(=O)Nc2ccccc2-c2ccccc2)CC1 | remaining at 1 h, 40 µM [15]: 57%; permeability [16]: 22.2%; permeability [17]: 18.3%
130 nM | 78 nM | 120 nM | 280 nM | 3000 nM | 8.9 nM | 200 nM | 27 nM | 120 nM | – | – | – | COc1ccc(-c2ccccc2)c(CNC(=O)NCCCN2CCN(c3ccccc3OC)CC2)c1 | –
130 nM | 74 nM | 86 nM | 22 nM | 3900 nM | 38 nM | 410 nM | 220 nM | 1500 nM | – | – | – | COCCOCCOc1ccc(NC(=O)NCCCN2CCN(c3ccccc3OC)CC2)c(-c2ccccc2)c1 | –
190 nM | 120 nM | 270 nM | 480 nM | 3300 nM | 11 nM | 120 nM | 62 nM | 140 nM | Metabolite_Detected | Metabolite_Detected | 4.09 min | COc1ccccc1N1CCN(CCCNC(=O)NCc2ccccc2-c2ccccc2)CC1 | remaining at 1 h, 40 µM [15]: 56%; permeability [16]: 15.7%; permeability [17]: 10.5%
– | – | – | – | – | – | – | – | – | – | – | – | C[C@H]1O[C@@H](O[C@H]2[C@@H](O)C[C@H](O[C@H]3[C@@H](O)C[C@H](O[C@H]4CC[C@@]5(C)[C@H](CC[C@@H]6[C@@H]5C[C@@H](O)[C@]5(C)[C@@H](C7=CC(=O)OC7)CC[C@]65O)C4)O[C@@H]3C)O[C@@H]2C)C[C@H](O)[C@@H]1O [DIGOXIN] | permeability [18]: 22.9%; permeability [19]: 12.1%
